Test results: the METLIN SMRT retention time set (Domingo-Almenara et al. 2019)

Test: gradient 5% acetonitrile 3 min, to 50% in 2 min, to 85% in 15 min, held 3 min, 100 µL/min
Details: column: Zorbax Extend-C18 2.1 x 50 mm; eluents: water / acetonitrile, 0.1% formic acid
Method in brief: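 Pure standards were run in mixtures of ~100 molecules by HPLC coupled to a quadrupole time-of-flight mass spectrometer. The column was a Zorbax Extend-C18 (2.1 × 50 mm, 1.8 μm) at 100 μL/min, with water and acetonitrile each containing 0.1% formic acid, in positive and negative ionization mode. Dead and dwell volumes were 40 μL and 900 μL. Retention time was taken from computationally picked adduct peaks, each manually inspected, with data collected over 3 months.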
Compound `Cc1ccccc1CN1N=C(C(=O)N2CCOCC2)S(=O)(=O)c2ccccc21` has an RP-LC retention time of 826 s. Compound `COc1ccc(-c2nnc(-c3cc(S(=O)(=O)NCc4ccco4)ccc3Cl)o2)cc1` has an RP-LC retention time of 964 s. Work on `CCOc1cc(-c2ccc(Cl)cc2)nc2ccc(NC(C)=O)cc12` yielded an RP-LC retention time of 686 s. Compound `CCN1CCCn2cc(S(=O)(=O)Nc3ccc(C)cc3Cl)cc2C1=O` has an RP-LC retention time of 775 s. Compound `O=S(=O)(c1ccc2c(c1)CCC2)N1CCC(Cc2nncn2-c2ccccc2)C1` (configuration not stated) has an RP-LC retention time of 846 s. In the case of `CC(C)c1ccc(S(=O)(=O)c2cnc(N3CCN(C4CCCCC4)CC3)nc2N)cc1`, the RP-LC retention time is reported as 767 s. Work on `CCc1cc(-c2csc(S(=O)(=O)Nc3ccc(F)c(Cl)c3)c2)on1` yielded an RP-LC retention time of 1020 s. `Cc1nc(-c2ccc(F)cc2)sc1C(=O)N1CCC(C(C)C(=O)N2CCOCC2)CC1` (configuration not stated) gave an RP-LC retention time of 745 s. Work on `CC(C(=O)Nc1cc(F)ccc1F)C1CCN(C(=O)Nc2ccccc2)CC1` (configuration not stated) yielded an RP-LC retention time of 867 s. Work on `CN(C)C(CNC(=O)c1cc(-c2ccc(Cl)cc2)on1)c1cccs1` (configuration not stated) yielded an RP-LC retention time of 728 s. Work on `Cc1nc(-c2ccc(S(=O)(=O)N3CCN(c4ccc(N5CCOCC5)nn4)CC3)cc2)co1` yielded an RP-LC retention time of 644 s. With `Cc1ccc(-n2ncc3c(=O)n(Cc4nc(-c5ccc(OC(C)C)cc5)no4)cnc32)cc1` the RP-LC retention time was 1200 s. `O=S(=O)(c1cc(-c2ccno2)cs1)N(CCc1ccccc1)Cc1ccccc1` showed an RP-LC retention time of 1200 s. Work on `COc1ccc2c(c1)C1(CCN(C(=O)NCc3ccc(F)cc3)C1)C(=O)N2C` (configuration not stated) yielded an RP-LC retention time of 755 s. For `CCOC(=O)c1noc2nc(C)nc(Nc3cccc(Cl)c3)c12`, the RP-LC retention time was 1200 s. `O=S(=O)(c1ccc(F)c(Cl)c1)N1CCC(OCc2noc(C3CCCO3)n2)CC1` (configuration not stated) gave an RP-LC retention time of 973 s. With `CSc1ccccc1NC(=O)C(=O)NCC1(c2cccs2)CCCC1` the RP-LC retention time was 1280 s. `O=C(Nc1cccc(Br)c1)NC1CCN(c2ccc(F)cc2)C1=O` (configuration not stated) showed an RP-LC retention time of 818 s. In the case of `Cc1cc(C)cc(C(=O)N2CC=C(C(=O)NC3CC3)CC2)c1`, the RP-LC retention time is reported as 755 s. Work on `Cc1cc(N2CCN(C)CC2)nc2ccc(NC(=O)Nc3ccccc3Br)cc12` yielded an RP-LC retention time of 609 s. In the case of `CCOc1ccc(NC(=O)N2CCC(c3cc(N)on3)CC2)cc1`, the RP-LC retention time is reported as 690 s. For `CCS(=O)(=O)N1CCCc2cc(C(=O)NCCCOC)ccc21`, the RP-LC retention time was 700 s. With `C=CCNC(=O)C1CCCN(C(=O)Nc2ccc(NC(=O)Nc3ccc(C)cc3C)cc2)C1` (configuration not stated) the RP-LC retention time was 760 s. For `COCCC1(NC(=O)C2CC2)CCN(S(=O)(=O)c2c(C)noc2C)CC1`, the RP-LC retention time was 740 s. Compound `COc1cc(=O)n2c(c1C(=O)Nc1cccc(Br)c1)CCCC2` has an RP-LC retention time of 760 s. Compound `CCc1noc(-c2ccc(-n3cnc(C(=O)NC4CCCC4)c3)nc2)n1` has an RP-LC retention time of 865 s. Compound `O=C(NC1CCCCC1)C1CCCN(S(=O)(=O)c2c[nH]c(C(=O)N3CCCC3)c2)C1` (configuration not stated) has an RP-LC retention time of 759 s. `Cc1ccccc1C(=O)CC1(O)C(=O)Nc2ccc(F)cc21` (configuration not stated) showed an RP-LC retention time of 730 s. In the case of `O=C(NC1CC1)C1CCN(c2nc3ccsc3c(=O)n2Cc2ccccc2)CC1`, the RP-LC retention time is reported as 741 s. `O=C1c2ccccc2NC(c2cc(Cl)cc(Cl)c2O)N1CCc1ccccn1` (configuration not stated) gave an RP-LC retention time of 723 s. In the case of `CCOC(=O)c1[nH]c(C)c(CN(Cc2ccc(C)cc2)C(=O)COC)c1C`, the RP-LC retention time is reported as 684 s. For `c1ccc(-c2nc(C3CCNC3)no2)cc1` (configuration not stated), the RP-LC retention time was 591 s. `Cc1ccc(NC(=O)Nc2nccn(-c3ccc(Br)cc3)c2=O)cc1C` gave an RP-LC retention time of 1100 s. With `Cc1cc(NC(=O)Cn2cnc(-c3cccs3)cc2=O)sn1` the RP-LC retention time was 654 s. In the case of `CCC(=O)N1CCCN(C2=NS(=O)(=O)C(c3ccccc3)=C2C)CC1`, the RP-LC retention time is reported as 694 s. Compound `CC(C)OCCCNC(=O)C1CCCN(c2ccc(-c3ccccc3)nn2)C1` (configuration not stated) has an RP-LC retention time of 683 s. With `CCCc1nc(-c2c(C)cc(C)nc2NC(=O)C2CCCCC2)no1` the RP-LC retention time was 876 s.
